Values after ≈ are worked out from the molar mass of the structure shown. Bounds are passed on as bounds.

What is called kinetic solubility is the concentration staying in solution when a stock, usually in DMSO, is diluted into the medium.

The conditions of this data set: buffer; pH 7.4; 200.0 µM.
`Cc1cc(C)cc(C(=O)Oc2cc(C)[nH]c(=O)c2[N+](=O)[O-])c1`: the solubility (kinetic) is more than 45.3 µg/mL.
The value for `Cc1ccc(S(=O)(=O)NCC(=O)NNC(=O)c2ccccc2Cl)cc1C` was more than 59.4 µg/mL.
Compound `O=C1NC2(CCCCCC2)C(=O)N1Cc1cccc(Cl)c1` showed a solubility (kinetic) of 15.8 µg/mL (≈ 51.5 µM).
`COc1ccc2c(c1)C(C)CC(C)(C)N2C(=O)Nc1ccccc1` (centres undefined) displayed a solubility (kinetic) of 13.4 µg/mL (≈ 41.3 µM).
In turn, `COc1ccc(-c2cc3cc(OC)c(OC)cc3c(C)n2)cc1C` showed a kinetic solubility of less than 0.7 µg/mL.
Under `O=C(O)CSCC(=O)N1CCCCC1` stands more than 32.6 µg/mL; under `COC(=O)/C=C1\N/C(=N\c2nc(C)cc(C)n2)N(c2ccccc2)C1=O`, more than 52.7 µg/mL; under `COC(=O)c1ccc(NC(=O)COc2ccc([N+](=O)[O-])cc2)cc1`, 0.4 µg/mL (≈ 1.21 µM).
Regarding `Cl.c1ccc2c(c1)CC(N1CCCCC1)c1ccccc1S2` (centres undefined), the kinetic solubility came to 1.8 µg/mL.
On to `COc1ccccc1CNC(=O)N1CCN(c2ccccc2)CC1`, for which the solubility (kinetic) is more than 48.8 µg/mL.
Under `Cc1onc(-c2ccccc2Cl)c1C(=O)N1CCC(C)CC1` stands more than 47.8 µg/mL; under `O=C(COC(=O)c1ccccc1Cl)NC1CCCCCCC1`, 34.1 µg/mL (≈ 105 µM); under `CC(=O)c1ccc(NC(=O)Nc2cccnc2)cc1`, 32.4 µg/mL (≈ 127 µM).
Compound `COc1cccc(OCCNS(=O)(=O)c2cccc([N+](=O)[O-])c2)c1` yielded a kinetic solubility of 46.6 µg/mL (≈ 132 µM).
Under `CCC(C)CN1CCC(CO)(Cc2ccccc2Cl)CC1` (centres undefined) stands more than 46.5 µg/mL; under `Cn1ncc(Cl)c1C(=O)N1CCN(c2ccccc2)CC1`, more than 45.7 µg/mL; under `CSc1ccccc1C(=O)NC1CCCc2ccccc21` (centres undefined), 11.7 µg/mL (≈ 39.3 µM).
For the compound `CC(C)=C(NC(=O)c1ccccc1)C(=O)Nc1ccc(C(=O)O)cc1`, the kinetic solubility was more than 50.8 µg/mL.
Compound `O=C(c1cc(Cl)ccc1O)N1CCN(S(=O)(=O)Cc2ccccc2)CC1` displayed a kinetic solubility of more than 59.2 µg/mL.
Under `O=C(COC(=O)CNC(=O)C1CCCCC1)NCc1ccc(Cl)cc1` stands 49.5 µg/mL (≈ 135 µM); under `CC(C)c1ccc(OC(=O)c2ccc3c(=O)n4c(nc3c2)CCC4)cc1`, 8.3 µg/mL (≈ 23.8 µM).
The value for `CCc1cccc(NS(=O)(=O)c2ccc3c(c2)NC(=O)CC(=O)N3)c1` was more than 53.9 µg/mL; that for `COCC(C)N1C(=O)Cc2c1nc(N)c1c(N)nc(N3CCN(c4ccccc4F)CC3)c(C#N)c21` (centres undefined) was 1.7 µg/mL (≈ 3.47 µM); that for `N#Cc1ccc(C(=O)Nc2nc3ccccc3[nH]2)cc1` was 2.6 µg/mL (≈ 9.91 µM).
The compound `N#CNC(=Nc1ccc(Cl)cc1)Oc1ccccc1` displayed a solubility (kinetic) of 1.9 µg/mL (≈ 6.99 µM).
Under `O=C(NCc1ccccc1)c1ccc2ccccc2n1` stands 26.3 µg/mL (≈ 100 µM).
Under `CNc1ncnc2sc(-c3ccccc3)cc12` stands 4.3 µg/mL (≈ 17.8 µM); under `Cc1nc2ccc(Cl)cc2nc1C`, 9.4 µg/mL (≈ 48.8 µM); under `CC(C)(C)c1cc2ncnc(N3CCCCC3)c2s1`, 10.5 µg/mL (≈ 38.1 µM).
The value for `Cc1ccc(C2(C)NC(=O)N(CC(=O)N3CC(=O)Nc4ccccc43)C2=O)cc1` (centres undefined) was 0.4 µg/mL (≈ 1.02 µM); that for `CC(C)CC(OC(=O)c1ccco1)C(=O)NC1CCCC1` (centres undefined) was 41.1 µg/mL (≈ 140 µM); that for `Cc1ccc(NCC(O)Cn2cnc3c2c(=O)n(C)c(=O)n3C)cc1` (centres undefined) was 31.8 µg/mL (≈ 92.6 µM).
`COC(=O)c1cc(NC(=O)COC(=O)CCc2nc3ccccc3c(=O)[nH]2)cc(C(=O)OC)c1` gave a kinetic solubility of 18 µg/mL (≈ 38.5 µM).
Under `O=C(CNC(=O)c1ccc(Cl)cc1Cl)NCC1CCCO1` (centres undefined) stands more than 49.7 µg/mL; under `CN(C)C(CNC(=O)c1ccc(NC(=O)CC#N)cc1)c1ccccc1` (centres undefined), more than 52.6 µg/mL; under `CC(C)CN(C(=O)CSc1nncn1C)C1CCS(=O)(=O)C1` (centres undefined), more than 52 µg/mL.
`O=C(NC1CCN(C(=S)NCCc2ccccc2)CC1)C1CC1` returned a kinetic solubility of 10.7 µg/mL (≈ 32.3 µM).
Under `C=CCOc1ccc(/C=C2\SC(=S)N(CCC(=O)O)C2=O)cc1` stands 48 µg/mL (≈ 137 µM); under `CC1CCCC(C)N1C(=O)CSc1nccc(=O)[nH]1` (centres undefined), 29.3 µg/mL (≈ 104 µM); under `COC(C(=O)Nc1ccc(Br)cc1F)c1ccccc1` (centres undefined), 26.1 µg/mL (≈ 77.2 µM).
The compound `Cc1nc(-c2ccccn2)nc(N2CCOCC2)c1Cl` came in with a kinetic solubility of more than 43.6 µg/mL.
Under `O=C1CCC([N+](=O)[O-])C(C2CC=CCC2)N1` (centres undefined) stands more than 33.6 µg/mL.
Regarding `CCOc1ccccc1NC(=O)Nc1ccon1`, the solubility (kinetic) is 15.5 µg/mL (≈ 62.7 µM).
Under `COc1ccc2nc(NCc3cccnc3)sc2c1` stands more than 40.7 µg/mL; under `Cc1cccc(C(=O)Nc2ccc(NC(=O)c3ccccc3)cc2)c1`, 1 µg/mL (≈ 3.03 µM).
Under `CC1CC(C)CN(C(=O)COC(=O)c2cc3ccccc3oc2=O)C1` (centres undefined) stands more than 51.5 µg/mL; under `CN(CC(=O)N1CCCCC1)S(=O)(=O)c1ccc(Cl)cc1`, 47.5 µg/mL (≈ 144 µM); under `O=C(CSc1ncccn1)N1CCCCCC1`, more than 37.7 µg/mL.
For the compound `COc1ccc(C)cc1COC(=O)c1[nH]c(C)c(C(C)=O)c1C`, the solubility (kinetic) is more than 47.3 µg/mL.
`CS/C(=C(/C#N)S(=O)(=O)c1ccc(Cl)cc1)N1CCOCC1`: the solubility (kinetic) was determined as 49.7 µg/mL (≈ 138 µM).
Consider `CN1CCN(NC(=O)c2cccc(C(F)(F)F)c2)CC1`, for which the solubility (kinetic) is more than 43.1 µg/mL.
The value for `COc1cc(OC)c(C(=O)OCC(=O)NC23CC4CC(CC(C4)C2)C3)cc1OC` was 3.9 µg/mL (≈ 9.67 µM).
In turn, `O=C1CCNc2c(Cl)cccc21` had a kinetic solubility of 20.9 µg/mL (≈ 115 µM). This solubility kinetic lies about 5.4-fold higher than the previous one.
The value for `COC(=O)Cn1cnc2scc(-c3ccc(C)c(C)c3)c2c1=O` was 33.7 µg/mL (≈ 103 µM); that for `C=CC(=O)NN(C)c1ncc(C(F)(F)F)cc1Cl` was more than 41.9 µg/mL.
The value for `Cc1cccc(C)c1NC(=O)COC(=O)c1cccnc1` was more than 42.6 µg/mL; that for `Cc1ccccc1NC(=O)c1ccc(S(=O)(=O)N2CCCC2)cc1` was more than 51.7 µg/mL.
Under `Cc1ccc(C(=O)N(CN2CCCC2=O)c2ccccc2)cc1` stands more than 46.3 µg/mL; under `COC(=O)c1ccc(CNC(=O)COC(=O)/C=C/c2cc(OC)c(OC)c(OC)c2)cc1`, 4.6 µg/mL (≈ 10.4 µM); under `NC(=O)COC(=O)c1cc(-c2ccco2)nc2ccccc12`, 39.9 µg/mL (≈ 135 µM).
On to `Nc1ncc([N+](=O)[O-])c(N2CCCCCC2)n1`, for which the kinetic solubility is more than 35.6 µg/mL.
Under `OCCC1CN(CC2CCCCC2)CCN1C1CCCC1` (centres undefined) stands 40.8 µg/mL (≈ 139 µM).
The value for `COc1ccc(OCCC(=O)N2CCN(C)CC2)cc1.Cl` was more than 47.2 µg/mL; that for `CC(Nc1ccc2c(c1)OCCO2)C(=O)Nc1ccc2c(c1)OCO2` (centres undefined) was more than 51.4 µg/mL; that for `CCOC(=O)Cn1c(C)cc(COC)c(C#N)c1=O` was more than 39.6 µg/mL.
Under `CC(=O)Nc1ccc(S(=O)(=O)Nc2ccc3ccccc3n2)cc1` stands 14.2 µg/mL (≈ 41.6 µM).
For the compound `O=C1OC(Nc2nc(-c3ccc(F)cc3)cs2)c2ccccc21` (centres undefined), the kinetic solubility came to 1.9 µg/mL (≈ 5.82 µM). This solubility kinetic is about 7.5-fold lower than that of the compound before.
Compound `CC(C)(C)NC(=O)CSc1ncccc1-c1nc2ccccc2[nH]1` yielded a kinetic solubility of 3.3 µg/mL (≈ 9.69 µM).
The value for `COc1ccccc1NC(=O)COC(=O)/C=C/c1ccc(OC)c(OC)c1` was 4.1 µg/mL (≈ 11 µM); that for `O=C(Nc1cnccn1)c1ccc(Cl)cc1` was 34.7 µg/mL (≈ 149 µM).
In the case of `CCn1c(=O)c2cc(C(=O)NCCN(C)C)sc2c2ccccc21`, the solubility (kinetic) worked out at 51.5 µg/mL (≈ 150 µM).
The value for `O=C(COC(=O)c1ccccc1Br)NCc1cccs1` was more than 53.1 µg/mL.
As for `COc1cc2c(cc1OC)CC(=O)NC=C2`, the solubility (kinetic) was more than 32.9 µg/mL.
The value for `O=C(CNC(=O)c1cccc(OC(F)F)c1)Nc1ccc(Cl)cc1` was 3.4 µg/mL (≈ 9.58 µM); that for `Cn1c(=O)[nH]c(=O)c2c1nc1n2CCS1` was 31 µg/mL (≈ 138 µM); that for `O=C(COc1ncnc2ccccc12)Nc1cccc([N+](=O)[O-])c1` was 15.1 µg/mL (≈ 46.6 µM).
The value for `CCOc1ccc(N2C(=O)CC(NCC3CCCO3)C2=O)cc1` (centres undefined) was more than 47.8 µg/mL; that for `O=C(CCNC(=O)c1ccccc1Cl)Nc1ccccc1N1CCCC1` was 48.6 µg/mL (≈ 131 µM).
`CC1(C)C(=O)N(c2ccccc2F)C(=O)c2ccccc21` showed a kinetic solubility of 37.2 µg/mL (≈ 131 µM).
The compound `CC(=O)c1sc(NC(=O)Cc2c(F)cccc2Cl)nc1C` displayed a kinetic solubility of 8.2 µg/mL (≈ 25.1 µM).
The value for `Nc1ccc(C(=O)O)cc1S(=O)(=O)O` was more than 32.6 µg/mL; that for `CC(C)N1C(=O)c2ccccc2N(Cc2ccccc2)S1(=O)=O` was 5.7 µg/mL (≈ 17.3 µM); that for `CC(C)c1ccc(S(=O)(=O)c2cnc(=S)[nH]c2N)cc1` was 0.9 µg/mL (≈ 2.91 µM).
The value for `CCOc1ccccc1NC(=S)NC(=O)c1ccco1` was 1.9 µg/mL (≈ 6.54 µM); that for `CCCCN(CC)S(=O)(=O)c1ccc2c(c1)n(C)c(=O)c(=O)n2C` was 2.8 µg/mL (≈ 7.92 µM); that for `CN(C)C(=O)Oc1ccc2c(c1)O/C(=C\c1cccc(Cl)c1)C2=O` was less than 0.7 µg/mL.
The value for `Cc1ccc(CC2C(=O)N(c3cc(Cl)ccn3)C(=O)C2C)cc1` (centres undefined) was more than 49.3 µg/mL; that for `CCC(C)n1c(C)cc(C(N)=O)c1C` (centres undefined) was 26.8 µg/mL (≈ 138 µM); that for `CC(=O)Nc1cccc(OCC(=O)Nc2sccc2C(N)=O)c1` was 4.9 µg/mL (≈ 14.7 µM).
`Cc1cc(Nc2ccc(Br)cc2)nc2ccccc12` showed a kinetic solubility of less than 0.3 µg/mL.
The value for `C#CCN1c2ccccc2Sc2cccnc21` was 4.8 µg/mL (≈ 20.1 µM).
Regarding `CCN(c1ccccc1)c1nc2nonc2nc1NCCO`, the kinetic solubility was more than 45 µg/mL.
Consider `CCOC(=O)NC(=O)CSc1ccc(C)cc1C`, for which the solubility (kinetic) is more than 40.1 µg/mL.
Under `CCC(C)n1c(O)c(C=NCCc2ccccc2)c(=O)[nH]c1=S` (centres undefined) stands 5.1 µg/mL (≈ 15.4 µM).
Under `CSc1ccccc1NC(=O)CSc1cccc[n+]1[O-]` stands more than 46 µg/mL.
Turning to `CCOc1ccccc1NC(=O)C(=O)NCCC1=CCCCC1`, the solubility (kinetic) is less than 0.3 µg/mL.
The value for `Cc1cc(SCc2ccc(F)cc2)nc(=O)[nH]1` was 22.1 µg/mL (≈ 88.3 µM); that for `O=C(O)Cc1ccc2c(c1)N(S(=O)(=O)c1cccs1)CC(C(=O)O)O2` (centres undefined) was more than 57.5 µg/mL; that for `CC(NC(=O)NC(=O)c1ccc(Cl)cc1Cl)C1CC1` (centres undefined) was 7.2 µg/mL (≈ 23.9 µM).
Compound `Cc1ccccc1C(=O)Nc1ccccc1C(=O)N1CCC(C)CC1` displayed a solubility (kinetic) of 32.9 µg/mL (≈ 97.8 µM).
The value for `Cn1c(COc2ccc(F)cc2)nc2ccccc21` was 36.3 µg/mL (≈ 142 µM); that for `Cc1csc(NC(=O)c2ccc(COc3ccccc3)o2)n1` was 3.3 µg/mL (≈ 10.5 µM); that for `CCN(CC)S(=O)(=O)c1ccc(Cl)nc1` was 34.3 µg/mL (≈ 138 µM).
Under `COc1cc(/C=C2\N=C(c3ccccc3)OC2=O)ccc1OC(C)=O` stands more than 50.6 µg/mL.
